# Measured values as given in US20210380547A1, “UREA DERIVATIVES FOR TREATING AND/OR PREVENTING CANCER” (CENTRE NATIONAL DE LA RECHERCHE SCIENTIFIQUE, priority 2018, published 2021).
# Read-outs that look alike come from different tables or passages of the source.
# Columns and labels:
# MolM14 = assay: XTT cell viability assay, MolM14; format: cell-based, human; conditions: Homo sapiens, MOLM-14; XTT assay (48 h); standard deviation of 10%; read-out: EC50 (μM) AML MolM14
# Procedure: (§1) Fifty microliters of sodium 3′-[1-phenylaminocarbonyl)-3,4-tetrazolium]-bis(4-methoxy-6-nitro) benzene sulfonic acid hydrate (XTT) reagent was added to each well. The assay is based on the cleavage of the yellow tetrazolium salt XTT to form an orange formazan dye by metabolically active cells. The absorbance of the formazan product, reflecting cell viability, was measured at 490 nm. Each assay was performed in quadruplicate.
# (§2) Compounds #1-#14 have been assayed as potential anti-proliferative agents against a panel of human breast head and neck, and kidney tumor cells and hematological malignancies, selected on the basis of their aggressiveness (e.g. incurable triple-negative breast cancer cells: MDA-MB-231; kidney ccRCC cells: RCC4, A498 and 786-O and 786R; head and neck cancer cells: CAL33, CAL33RR, CAL27, and CAL27RR; acute myeloid cell lines: OCI-AML2, OCI-AML3, MolM13, and MolM14; myelodysplastic cell line: SM1; and chronic myeloid cell line: CML). All these cell lines share as common denominator the expression of CXCR1 and CXCR2. The EC50 values have been measured by a XTT colorimetric assay, and compared to those of SB-225002, used as a reference; the results are listed in Table 1.
# 786R = assay: XTT cell viability assay, 786R (sunitinib-resistant); format: cell-based, human; conditions: for EC50: XTT assay (48 h), sunitinib-resistant, standard deviation of 10%, read-out: EC50 (μM) Kidney 786R
# Procedure: A, B: Naive (786-O, A), and sunitinib-resistant (786-R, B) 786-O cells, were treated with compound #1 or sunitinib (1 to 10 μM) for 48 hr. Cell viability was measured by XTT assays;
# D, E: 786-O (D), 786-R (E), were treated with 2.5 μM compound #1 or 2.5 μM sunitinib for 24 h to 96 h. The cells metabolism was measured by XTT assay;
# as §1, §2
# CAL33RR = assay: XTT cell viability assay, CAL33RR; format: cell-based; conditions: Homo sapiens, light or radiation study; XTT assay (48 h); resistant to irradiation and cisplatin; standard deviation of 10%; read-out: EC50 (μM) Head and Neck CAL33RR
# Procedure: as §1, §2
# CAL27RR = assay: XTT cell viability assay, CAL27RR (cisplatin-resistant); format: cell-based, human
# Procedure: (§3) A, B: Naive (Cal27, A), and cisplatine-resistant (Cal27R, B) Cal27 cells, were treated with compound #1 or cisplatine (1 to 10 μM) for 48 hr. Cell viability was measured by XTT assays;
# (§4) C, D: Cal27 (C), cal27R (D), were treated with 2.5 μM compound #1, 2.5 μM cisplatin for 24 h to 96 h. The metabolism of cells was measured by XTT assay.
# as §1, §2
# A498 = assay: XTT cell viability assay, A498; format: cell-based, human; conditions: Homo sapiens, A498; XTT assay (48 h); standard deviation of 10%; read-out: EC50 (μM) Kidney A498
# Procedure: as §1, §2
# MDA-MB-231 = assay: XTT cell viability assay, MDA-MB-231; format: cell-based; conditions: Homo sapiens, XTT assay (48 h), standard deviation of 10%, read-out: EC50 (μM) Breast MDA-MB-231
# Procedure: as §1, §2
# [1] = system: primary normal kidney cells (15S); assay: XTT cell viability, primary normal kidney cells; format: cell-based, human; conditions: up to 5 μM, XTT 48 h
# Procedure: A: Primary RCC cells (TF and CC) and normal renal cells (15S) were treated with compound #1 (1 to 5 μM) for 48 h. Cell viability was measured by XTT assays;
# as §1
# The biological effects of compound #1 on primary RCC tumors cells and normal renal cells harvested from patients suffering from kidney cancer have been explored (FIG. 4).
# CAL27 = assay: XTT cell viability assay, CAL27; format: cell-based, human; conditions: for EC50: XTT assay (48 h), standard deviation of 10%, read-out: EC50 (μM) Head and Neck CAL27
# Procedure: as §3, §4, §1, §2
# OCI-AML3 = assay: XTT cell viability assay, OCI-AML3; format: cell-based, human; conditions: Homo sapiens, OCI-AML-3; XTT assay (48 h); standard deviation of 10%
# Procedure: as §1, §2
# [2] = system: phosphorylation of ERK and AKT; assay: Immunoblotting of p-ERK and p-AKT in 786-O and 786-R; format: cell-based, human; conditions: 2.5 μM, 1 to 48 h
# Procedure: H: 786-O and 786-R were treated with 2.5 μM compound #1 for 1 to 48 h. p-ERK and p-AKT levels were determined by immunoblotting. ERK and AKT served as loading controls. *P<0.05; **P<0.01; ***P<0.001.
# (§5) Cells were lysed in buffer containing 3% SDS, 10% glycerol and 0.825 mM Na2HPO4. 30 to 50 μg of proteins were separated on 10% SDS-PAGE, transferred onto a PVDF membrane (Immobilon, Millipore, France) and then exposed to the appropriate antibodies. Proteins were visualized with the ECL system using horseradish peroxidase-conjugated anti-rabbit or anti-mouse secondary antibodies.
# OCI-AML2 = assay: XTT cell viability assay, OCI-AML2; format: cell-based, human; conditions: Homo sapiens, OCI-AML2; XTT assay (48 h); standard deviation of 10%; read-out: EC50 (μM) AML OCI-AML2
# Procedure: as §1, §2
# HuVEC = HuVEC viability/proliferation (XTT), basal and CXCL5/CXCL7-dependent; format: cell-based; conditions: XTT 48 h; 100 ng/ml CXCL7 or CXCL5, 0.25 or 0.5 μM
# Procedure: C: HuVEC were grown in the presence of different concentrations of compound #1 for 48h. Cell viability was measured by XTT assays;
# D: HuVEC were incubated with 100 ng/ml CXCL7 or CXCL5, in presence of 0.25 or 0.5 μM compound #1 for 48 h. Cell viability was measured by XTT assays;
# as §1
# ERK signaling pathway = assay: Immunoblotting of p-ERK in CXCL5-stimulated HuVEC; format: cell-based; conditions: 5 μM pre-treatment 1 h, CXCL5 50 ng/ml 10 min
# Procedure: E: HuVEC were pre-treated with 5 μM compound #1 for 1 h then stimulated with 50 ng/ml CXCL5 for 10 min. p-ERK levels were analyzed by immunoblotting. ERK and HSP60 served as loading controls *P<0.05; **P<0.01; ***P<0.001.
# as §5
# SKM1 = assay: XTT cell viability assay, SKM1; format: cell-based, human; conditions: Homo sapiens, SKM-1; XTT assay (48 h); standard deviation of 10%; read-out: EC50 (μM) MDS SKM1
# Procedure: as §1, §2
smiles,measurement,setting,value
"O=C(Nc1cccc(Cl)c1)Nc1nc2ccc([N+](=O)[O-])cc2s1 [Compound #1, 1-(3-chlorophenyl)-3-(6-nitrobenzo[d]thiazol-2-yl)urea]",EC50,MolM14,4 µM
same,time of treatment to total inhibition of proliferation,"786R; 786-R cells, 2.5 μM, XTT 24 h to 96 h",~100 h
same,EC50,"786R; Homo sapiens, 48 h",2 µM
same,EC50,786R,2.5 µM
same,EC50,CAL33RR,3 µM
same,time of treatment to total inhibition of proliferation,"CAL27RR; Cal27R cells, 2.5 μM, XTT 24 h to 96 h",approximately 70 hours
same,EC50,"CAL27RR; Homo sapiens, light or radiation study, XTT assay (48 h), resistant to irradiation and cisplatin, standard deviation of 10%, read-out: EC50 (μM) Head and Neck CAL27RR",2 µM
same,EC50,A498,2.5 µM
same,EC50,MDA-MB-231,2.5 µM
same,effect on primary normal kidney cells (15S),[1],no effect
same,time of treatment to total inhibition of proliferation,"CAL27; Cal27 cells, 2.5 μM, XTT 24 h to 96 h",approximately 70 hours
same,EC50,"CAL27; Homo sapiens, CAL-27, 48 h",2 µM
same,EC50,CAL27,3 µM
same,EC50,OCI-AML3,4 µM
same,phosphorylation of ERK and AKT,[2],inhibits the phosphorylation of ERK and AKT
same,EC50,OCI-AML2,5 µM
same,basal and CXCL5/CXCL7-dependent HuVEC proliferation,HuVEC,inhibits basal and CXCL5/CXCL7-dependent HuVEC proliferation
same,ERK signaling pathway (p-ERK) in HuVEC,ERK signaling pathway,inhibition of the ERK signaling pathway
same,EC50,SKM1,5 µM
